Experimental data published in patent publication US11246818B2, “Peptides and compositions for use in cosmetics” (LIPOTRUE, S.L., priority 2017, dated 2022).
Residues, ends and D or L forms follow the SMILES beside them.

Legend:
[1] = tested on: Primary human epidermal keratinocytes; test: Protection against oxidative stress (reactive oxygen species) induced by hydrogen peroxide; type: cell-based; conditions: all concentrations tested
Experimental: Columns from left to right in the x-axis of FIG. 4(A) correspond to: basal state (cells to which no treatment is applied), positive control, negative control of oxidation (sample treated with 1 mM ascorbic acid) and treatments with Ac-SEQ ID NO: 1-NH2 concentrations of 0.001 mg/ml, 0.005 mg/ml and 0.01 mg/ml, respectively. […] Columns from left to right in the x-axis of FIG. 3(B) correspond to: basal state (cells to which no treatment is applied), positive control, negative control (sample treated with 1 mM ascorbic acid) and treatments with Ac-SEQ ID NO: 2-NH2 concentrations of 0.001 mg/ml, 0.005 mg/ml, 0.01 mg/ml and 0.05 mg/ml, respectively.
Primary human epidermal keratinocytes were seeded in black 96 well-plates in the corresponding culture medium and, 48 hours later, treated with the different compounds analysed (Ac-SEQ ID NO: 1-NH2 or Ac-SEQ ID NO: 2-NH2) for 3 hours at 37° C. or with ascorbic acid as an antioxidant control. After incubation, cells were loaded with a fluorescence probe for 45 minutes and then H2O2 was added for 30 minutes.
Finally, fluorescence was determined at Excitation 485 nm/Emission 520 nm.

[2] = tested on: Primary human epidermal keratinocytes; test: Protection against DNA oxidation induced by synthetic smoke (8-OHdG, competitive ELISA); type: cell-based; conditions: synthetic smoke 48 h
Experimental: (§1) Primary human epidermal keratinocytes were seeded in 96-well plates in standard culture medium and, 24 hours later, subjected to a simultaneous treatment with synthetic smoke containing selected compounds from the particle phase (for example, cadmium and nicotine) and vapour phase (for example, formaldehyde (hereinafter, FA) and ethyl carbamate) of tobacco smoke and the analysed compound (Ac-SEQ ID NO: 1-NH2) for 48 h.
After treatment, cells were lysed and DNA oxidation on cell homogenates was analysed measuring levels of 8-OHdG by means of a competitive ELISA assay with absorbance at 450 nm.

[3] = tested on: HO-1; test: HO-1 immunostaining on human skin explants
Experimental: (§2) The protection efficacy of peptide Ac-SEQ ID NO: 1-NH2 against pollution aggression on human living explants was assessed by observation of the general morphology, immunostaining of AhR and HO-1 (both are known markers of oxidative stress as they have been related to anti-oxidative response) (Esser C., Bargen I., Weighardt H., Haarmann-Stemmann T., Krutmann J., Functions of the aryl hydrocarbon receptor in the skin, Semin Immunopathol (2013) 35:677-691; Kohen R., Nyska A., Oxidation of Biological Systems: Oxidative Stress Phenomena, Antioxidants, Redox Reactions, and Methods for Their Quantification, Toxicologic Pathology (2002) vol 30, no 6, 620-650).
(§3) Briefly, human skin explants from a person were put in culture under controlled conditions. 21 skin explants of an average diameter of 11 mm (±1 mm) were prepared and kept in survival in BEM culture medium at 37° C. in a humid, 5% CO2 atmosphere. The explants were distributed in 5 batches: explant control (Time=0), control batch, explants treated with the above-mentioned peptide, explants treated with pollutant and explants treated with pollutant and with the above-mentioned peptide. A composition containing Ac-SEQ ID NO: 1-NH2 in accordance with Example 8 was prepared and it was topically applied on days 0, 1, 3 and 4. […] Finally, image analyses and quantification were performed using Cell^D software (Olympus, Tokyo, Japan).

[4] = tested on: HEKa cells; test: Modulation of the expression of antioxidant genes (RTqPCR); type: cell-based, human; conditions: 0.05 mg/mL, 24 hours
Source text: Changes in gene expression levels are represented as a positive or negative fold-change with regard to the basal control (untreated cells). Bars from top to bottom in the y-axis refer to: CYP2R1 (Vitamin D 25-hydroxylase), NFE2L2 (Nuclear factor-like 2), HMOX1 (Heme oxygenase-1), GSTP1 (Glutathione S-transferase P), GSS (Glutathione synthetase), GPX1 (Glutathione peroxidase) and TRX (Thioredoxin). The x-axis refers to fold change versus or with regard to the basal control.
Briefly, HEKa cells were seeded in duplicate in 6-well plates at a density of 4×10^5 cells/well and maintained at standard culture conditions (37° C., 95% humidity, 5% CO2) for 24 hours. Then, cells were treated with non-cytotoxic concentrations of Ac-SEQ ID NO: 1-NH2 (0.05 mg/mL) for an additional 24 hours.
Untreated cells were used as basal control. Cells were then lysed for RNA extraction with a RNA purification commercial kit following manufacturer instructions (RNeasy mini kit; Qiagen; Netherlands). RNA was then quantified by nanodrop, adjusted in concentration and processed for retrotranscription to cDNA using a commercially available kit (High-Capacity cDNA Reverse Transcription kit; Thermofisher Scientific, USA). Resulting cDNA was used to perform a RTqPCR (Real Time Quantitative Polymerase Chain Reaction) using Taqman technology and a panel of probes designed to target specific genes related to melanogenesis and HEMn-HEKa and HEMn-HDFa communication.

[5] = tested on: Primary human epidermal keratinocytes; test: Protection against lipoxidation induced by synthetic smoke (intracellular MDA); type: cell-based; conditions: synthetic smoke 48 h
Experimental: as §1
In addition, after treatment, lipoxidation was analysed by means of the levels of intracellular MDA, which were measured by the reaction between MDA and N-methyl-2-phenylindole (hereinafter, NMPI) rendering a stable blue chromophore with an absorption peak at 586 nm.

[6] = tested on: Primary human epidermal keratinocytes; test: Protection against glycation induced by heavy metals (Advanced Glycation End products, competitive ELISA); type: cell-based; conditions: all concentrations tested (0.01, 0.05, 0.1 mg/ml), 48 hours
Experimental: Primary human epidermal keratinocytes were seeded in 96-well plates in standard culture medium and, 24 hours later, subjected to a simultaneous treatment with heavy metals (containing a mixture of Fe, Pb and Cr) and peptide Ac-SEQ ID NO: 1-NH2 for 48 hours. Levels of Advance Glycation End (AGE) products were measured by means of a competitive ELISA assay with absorbance at 450 nm.

[7] = tested on: AhR; test: AhR immunostaining on human skin explants exposed to pollutants; conditions: composition of Example 8 applied topically, versus pollutants without peptide
Experimental: as §2, §3

[8] = lower tested concentration (0.01 mg/ml)
[9] = other two tested concentrations (0.05, 0.1 mg/ml)

With CC(=O)N[C@@H](CC(=O)O)C(=O)N[C@@H](Cc1ccc(O)cc1)C(=O)N[C@@H](CCCCN)C(=O)N[C@H](C(N)=O)C(C)C [Ac-SEQ ID NO: 1-NH2, Ac-Asp-Tyr-Lys-Val-NH2] (Ac-DYKV-NH2) the “activity against hydrogen peroxide induced reactive oxygen species compared with Ac-SEQ ID NO: 2-NH2” value [1] was “increased activity in all concentrations tested”, the “protection of DNA oxidation” value ([2]; 0.1 mg/ml) was “almost complete inhibition of the effects of synthetic smoke” and the “DNA oxidation (8-OHdG)” value [2, 8] was “slight decrease (non-statistically significant)”. For the same compound, the “DNA oxidation (8-OHdG)” value [2, 9] was “higher, statistically significant, effect”, the “decrease in HO-1 (epidermal surface occupied)” value ([3]; composition of Example 8 applied topically, exposed to pollutants, versus pollutants without peptide) was 23% and the “increase of levels of HO-1” value ([3]; peptide in a final formulation, without exposure to pollutants, versus untreated and unexposed explants) was 69%. For the same compound, the “CYP2R1 gene expression, fold change versus basal control” value [4] was 1.44 fold change, the “GPX1 gene expression, fold change versus basal control” value [4] was 1.22 fold change and the “GSS gene expression, fold change versus basal control” value [4] was 1.10 fold change. The “GSTP1 gene expression, fold change versus basal control” value [4] was 1.13 fold change, the “HMOX1 gene expression, fold change versus basal control” value [4] was 1.48 fold change and the “NFE2L2 gene expression, fold change versus basal control” value [4] was 1.23 fold change. For the same compound, the “TRX gene expression, fold change versus basal control” value [4] was 1.34 fold change, the “lipoxidation (MDA)” value [5, 8] was “slight decrease (non-statistically significant)” and the “lipoxidation (MDA)” value [5, 9] was “higher, statistically significant, effect”. The “quantity of advanced glycation end-products” value [6] was “statistically significant decrease” and the “decrease in AhR (epidermal surface occupied)” value [7] was 16%.
